Results taken from patent US20250002854A1, “METHODS OF GENERATING POPULATIONS OF TUMOUR-INFILTRATING T CELLS” (LYTIX BIOPHARMA AS, priority 2016, published 2025).
“Also recorded” adds a separate entry of the source. Square brackets hold non-standard residues; d marks the D form. Ends that are not written are not given here. Dip = N[C@H](C(=O)O)C(c1ccccc1)c1ccccc1

Legend:
A375 cells = assay: TEM electron microscopy of A375 cells; format: cell-based, human
Procedure: A375 cells were seeded at 1×10^5 cells per well in 6-well plates and allowed to grow for three days to optimize membrane structures in the culture, and the media was changed on the second day. Cells were washed twice in serum-free RPMI before being treated with LTX-315 dissolved in serum-free RPMI at 5, 10 and 25 μg/ml, with serum-free RPMI as a negative control. Cells were then washed with PBS twice before fixation for 24 hours in 4° C. with 4% formaldehyde and 1% gluteralaldehyde in a Hepes buffer at pH 7.8. Dehydration and post-fixation protocols included incubation in a 5% buffered tannic acid and incubation in a 1% osmium-reduced ferrocyanide. Ultrathin sections were prepared, and uranyl acetate (5%) and Reynolds's lead citrate were used for staining and contrasting. Samples were examined on a JEOL JEM-1010 transmission electron microscope, and images were taken with an Olympus Morada side-mounted TEM CCD camera (Olympus soft imaging solutions, GmbH, Germany).

A20, murine lymphoma = assay: LysoTracker DND-26 in non-melanocytic cell line; format: cell-based; details: data not shown
murine B16 melanomas = assay: Murine melanoma model, intratumoural injections of LTX-401; format: in vivo
B16F1 cells [1] = assay: Release of ATP (luciferin-luciferase); format: cell-based, murine; details: 54 μM, up to 120 min
Procedure: Serum-free RPMI 1640 treated cells functioned as a negative and blank control, respectively. Extracellular levels of ATP were measured at the end of the experiment using a luciferin-based ENLITEN ATP Assay kit (Promega, Madison, WI, USA), in which ATP-driven chemoluminescence was recorded on a Luminescence Microplate Reader (Labsystems Luminoskan®, Finland), and expressed as relative light units (RLU).

B16F1 cells [2] = assay: Release of cytochrome c (ELISA); format: cell-based, murine; details: 108 μM
Procedure: B16F1 cells were plated onto 96-well culture plates as previously described above for the MTT assay. Cells were treated with 108 μM (4×IC50^4h) for designated time points (30, 60, 90, 120 and 240 minutes), while control cells were preserved in serum-free RPMI-1640 only until the experimental endpoint. Supernatants were collected and diluted 1/5 in a serum-free RPMI 1640 before being evaluated using a Rat/Mouse Cytochrome c Quantikine ELISA kit (R&D Systems, USA), according to the instructions of the manufacturer. The concentration of cytochrome c was calculated by interpolation values on the provided standard curve.

B16F1 cells [3] = assay: TEM electron microscopy of B16F1 cells; format: cell-based, murine; details: 108 μM
Procedure: B16F1 cells were seeded in 35 mm sterile tissue culture dishes at a density of 1×10^4 cells in a volume of 2 ml of culture media, and left to adhere and grow in a cell incubator at 37° C., >95% humidity and 5% CO2 conditions. When cultured cells reached an acceptable confluence (˜80-90%), they were incubated with the 4×IC50^4h value of LTX-401 (108 μM) for different time points (5, 15, 30 and 60 minutes) and subsequently fixed in a PHEM buffered (0.1 M) solution containing 0.05% malachite green oxalate (Sigma), 0.5% glutaraldehyde (GA, Electron Microscopy Sciences) and 4% formaldehyde (FA, Electron Microscopy Sciences). Malachite green is more frequently being used as an additive to primary fixation in order to reduce lipid extraction commonly associated with sample processing. Samples were immediately loaded and processed en bloc using the PELCO Biowave Pro Laboratory Microwave (Ted Pella, Inc.), a newly introduced method considered to be advantageous over conventional bench protocols, since it reduces sample preparation from days to hours. For all microwave steps, samples were microwaved at 23° C. with a 50° C. cut-out temperature. Both malachite green/GA/FA and osmium-reduced ferrocyanide (0.8% K3Fe (CN)6/1% OsO4) fixation steps were run in “power on/off” cycles of 2 minutes on, 2 minutes off (100 W), with vacuum.
Samples were rinsed four times with 0.1 M PHEM buffer between each step (two bench rinses and two final rinses for 40 seconds at 250 W) before being stained with 1% tannic acid (Electron Microscopy Sciences, PA, USA) and 1% aqueous uranyl acetate (Electron Microscopy Sciences, PA, USA) under “power on/off” cycles of 1 minute on, 1 minute off (150 W), with vacuum. Samples were rinsed as previously described between each staining procedure, in addition to being microwaved twice in water at 250 W (vacuum off). […]

[4] = previous studies by Ausbaucher et al.; cited from earlier work

Compound | cells with vacuolization (A375 cells; 3.5 μM) | number of necrotic cells (A375 cells; 3.5 μM, 60 minutes) | ultrastructural changes (A375 cells; 3.5 μM, 60 minutes) | cells displaying vacuolization (A375 cells; 17 μM, 60 min) [%] | cells with necrotic morphology and loss of plasma membrane integrity (A375 cells; 17 μM, 60 min) | mode of cell killing (A375 cells; TEM, A375 cells) | LysoTracker DND-26 signal (A20, murine lymphoma) | tumour regression / remission (murine B16 melanomas) | extracellular concentration of ATP (B16F1 cells [1]) | time at which cytochrome c is present in the supernatant (B16F1 cells [2]) [min] | cytochrome c in supernatant, peak (B16F1 cells [2]; experimental endpoint) | ultrastructural changes (B16F1 cells [3]; 5 min) | ultrastructural changes (B16F1 cells [3]; 60 minutes) | mode of cell killing (B16F1 cells [3]; TEM) | mitochondrial membrane potential (TMRE) [4]
K-K-W-W-K-K-W-Dip-K-NH2 (KKWWKKW[Dip]K-NH2) [LTX-315] | approximately 20% | less than 5% | showed vacuolization, as well as some altering of the mitochondrial morphology | 4 | approximately 40% | kills the tumor cells with a lytic mode of action | – | – | – | – | – | – | – | – | –
Cl.Cl.NCCNC(=O)C(CN)(CCCc1ccccc1)CCCc1ccccc1 [LTX-401] | – | – | – | – | – | – | achieved similar results | complete and long-lasting remission; also recorded: complete regression | quickly rose 60 min after initiating treatment | 120 | approximately 40 ng/ml | lost their surface morphology | Large portions of cells were necrotic | kills by a lytic mode of action | did not compromise the mitochondrial membrane potential
